In US11642344B2, “Cholesteryl ester transfer protein (CETP) inhibitor and pharmaceutical compositions comprising said inhibitor for use in the treatment or prevention of cardiovascular diseases” (NewAmsterdam Pharma B.V., priority 2014, dated 2023):

What was measured:
CETP = target: T1, CETP (Homo sapiens, UniProt P11597); assay: Clinical repeated dose study: plasma CETP activity; format: in vivo; settings: for Maximum % change from baseline in CETP activity: repeated oral doses, steady state, mean
T1 construct: from tissue; host or cells: plasma of Caucasian male subjects dosed with Compound A or placebo
T1 sequence (P11597 18-493): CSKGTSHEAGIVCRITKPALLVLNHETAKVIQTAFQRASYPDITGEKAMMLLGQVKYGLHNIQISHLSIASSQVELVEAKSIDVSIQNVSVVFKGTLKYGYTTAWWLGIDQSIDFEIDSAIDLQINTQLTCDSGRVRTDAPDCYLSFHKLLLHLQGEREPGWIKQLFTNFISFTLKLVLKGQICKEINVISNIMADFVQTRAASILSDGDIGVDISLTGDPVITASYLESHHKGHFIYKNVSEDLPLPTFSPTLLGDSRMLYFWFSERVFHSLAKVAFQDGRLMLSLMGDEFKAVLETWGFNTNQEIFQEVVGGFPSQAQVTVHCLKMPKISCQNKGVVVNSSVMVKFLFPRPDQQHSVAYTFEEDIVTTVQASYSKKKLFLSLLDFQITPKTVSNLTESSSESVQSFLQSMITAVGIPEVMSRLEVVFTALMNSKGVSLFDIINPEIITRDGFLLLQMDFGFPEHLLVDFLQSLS
Protocol: (§1) The clinical study was a repeated dose study in 5 groups of Caucasian male subjects aged 18 to 55 years. Each subject received a single oral dose of Compound A/placebo on Day 1, followed by once daily doses on Days 8 to 35 (5 mg Compound A/placebo—Group 1) or Days 8 to 28 (1, 2.5, 10 and 25 mg Compound A/placebo—Groups 2 to 5). All doses were administered at the study center after a standard breakfast. Subjects in each dose group were allocated to study treatment in a ratio of 10 Compound A to 2 placebo. Blood samples for pharmacokinetic and pharmacodynamic (CETP activity, CETP concentration, HDL-C, LDL-C, total cholesterol, triglycerides) assessments were collected from prior to each dose and at intervals throughout the study until 336 hours after the last dose. Secondary pharmacodynamic endpoints (including apolipoproteins A1, A2, B, and E, HDL2-C, HDL3-C, phospholipids, HDL-free cholesterol [HDL-FC], HDL-cholesteryl ester [HDL-CE], HDL-phospholipids [HDL-PL], HDL-triglycerides [HDL-TG], and LDL particle size) were measured at intervals until the last day of dosing. Urine was collected for pharmacokinetics from pre dose and at intervals up to 72 hours after the first and last dose. Safety assessments including adverse events, blood pressure and pulse rate, ECGs, laboratory safety tests (including aldosterone) and physical examinations were conducted throughout both studies.
(§2) Plasma and urine concentrations of Compound A were determined using validated liquid chromatography with tandem mass spectrometry (LC/MS/MS) methods. The lower limit of quantification (LLQ) for both assays was 0.500 ng/mL. Plasma concentration of CETP was determined using a validated enzyme-linked immunosorbent assay (ELISA) method with a lower limit of quantification (LLQ) of 0.500 μg/mL. CETP activity was determined as the rate of [^3H]-labeled CE transfer from donor HDL to acceptor VLDL/LDL. [^3H]CE-labeled HDL was added to human plasma and incubated for 4 hours at 37° C. Non-HDL lipoproteins were precipitated and separated from HDL, and the amount of radioactivity in the supernatant was quantitated. CETP activity was determined as the difference of the radioactivity between the samples incubated at 37° C. and 4° C. HDL-C and LDL-C were measured by homogenous enzymatic colorimetric assay using a Modular analyser (Roche Diagnostics). Total cholesterol and triglycerides were measured by homogenous enzymatic assay using a Modular analyser (cholesterol oxidase peroxidase-peroxidase aminophenazone phenol [CHOP-PAP]) method and a glycerol phosphate oxidase [GPO-PAP] method, respectively. ApoA1, ApoA2, ApoB and ApoE were measured by immunoturbidimetry using reagents from Rolf Greiner Biochemica (Germany) and N-apoprotein standard serum from Siemens (Germany). LDL particle size was determined by gradient gel electrophoresis. HDL fraction was separated by a combined ultracentrifugation-precipitation method (Beta-quantification). HDL-2 and HDL-3 fractions were then separated by further ultracentrifugation. Total-cholesterol in HDL, HDL-2 and HLD-3 fractions, free cholesterol in HDL fraction, triglycerides in HDL fraction and phospholipids in plasma and HDL-fraction were measured using enzymatic methods and reagents from Diasys Diagnostics (Germany). The measurements were performed on an Olympus AU600 automatic analyzer and were calibrated using secondary standards from Roche Diagnostics (Total-cholesterol, triglycerides) and Diasys Diagnostics (free cholesterol, phospholipids), respectively. Esterified cholesterol was calculated as the difference between total-cholesterol and free cholesterol.
(§3) The sample sizes for the study were chosen based on practical considerations rather than statistical power. The numbers of subjects in each group were considered to be adequate to assess the main objectives of each study. Subjects were allocated to Compound A or placebo in each group by means of a computer-generated randomization code. […]

[1] = tested on: HDL-C, LDL-C, total cholesterol, triglycerides; assay: Clinical repeated dose study: HDL-C, LDL-C, total cholesterol, triglycerides and secondary lipid variables; format: in vivo, human; settings: for Maximum % change from baseline in HDL-C concentration / Maximum % change from baseline in LDL-C concentration / Maximum % change from baseline in Total cholesterol / Maximum % change from baseline in Triglycerides: repeated oral doses, steady state, mean
Protocol: as §1, §2, §3

[2] = Clinical repeated dose study: pharmacokinetics (LC/MS/MS plasma concentrations); format: in vivo, human
Protocol: as §1, §2, §3

[3] = Clinical repeated dose study: safety assessments; format: in vivo, human; settings: repeated doses up 25 mg once daily
Protocol: as §1

[4] = steady state, for a 25-fold increase in dose

CCOC(=O)N1c2ccc(C(F)(F)F)cc2[C@@H](N(Cc2cc(C(F)(F)F)cc(C(F)(F)F)c2)c2ncc(OCCCC(=O)O)cn2)C[C@H]1CC [Compound A, {4-[(2-{[3,5-bis(trifluoromethyl)benzyl][(2R,4S)-1-(ethoxycarbonyl)-2-ethyl-6-(trifluoromethyl)-1,2,3,4-tetrahydroquinolin-4-yl]amino}pyrimidin-5-yl)oxy]butanoic acid}]
Maximum % change from baseline in CETP activity (CETP; 1 mg once daily, Caucasian male healthy subjects): −66.5% | Maximum % change from baseline in CETP activity (CETP; 2.5 mg once daily): −91.6% | Maximum % change from baseline in CETP activity (CETP; 5 mg once daily): −90.9% | Maximum % change from baseline in CETP activity (CETP; 10 mg once daily): −97.6% | Maximum % change from baseline in CETP activity (CETP; 25 mg once daily): −99.4% | CETP activity below baseline after last dose (CETP; 2 weeks following 10 and 25 mg dosing): approximately 50% | CETP activity after the last dose (in words) (CETP; by 2 weeks following the lowest dose (1 mg)): approaching baseline levels | time to maximum effect on CETP inhibition (CETP; once daily dosing, each dose): ≤ 1 week | CETP inhibition (in words) (CETP; repeated once daily dosages as low as 2.5 mg): near complete CETP-inhibition | Maximum % change from baseline in HDL-C concentration ([1]; 1 mg once daily): 37.9% | Maximum % change from baseline in LDL-C concentration ([1]; 1 mg once daily): −29.6% | Maximum % change from baseline in Total cholesterol ([1]; 1 mg once daily): −12.7% | Maximum % change from baseline in Triglycerides ([1]; 1 mg once daily): −50.2% | Maximum % change from baseline in HDL-C concentration ([1]; 2.5 mg once daily): 95.6% | Maximum % change from baseline in LDL-C concentration ([1]; 2.5 mg once daily): −39.1% | Maximum % change from baseline in Total cholesterol ([1]; 2.5 mg once daily): −7.9% | Maximum % change from baseline in Triglycerides ([1]; 2.5 mg once daily): −45.8% | Maximum % change from baseline in HDL-C concentration ([1]; 5 mg once daily): 118% | Maximum % change from baseline in LDL-C concentration ([1]; 5 mg once daily): −41.7% | Maximum % change from baseline in Total cholesterol ([1]; 5 mg once daily): −1.4% | Maximum % change from baseline in Triglycerides ([1]; 5 mg once daily): −20.3% | Maximum % change from baseline in HDL-C concentration ([1]; 10 mg once daily): 140% | Maximum % change from baseline in LDL-C concentration ([1]; 10 mg once daily): −43.6% | Maximum % change from baseline in Total cholesterol ([1]; 10 mg once daily): 3.7% | Maximum % change from baseline in Triglycerides ([1]; 10 mg once daily): −22.2% | Maximum % change from baseline in HDL-C concentration ([1]; 25 mg once daily): 136% | Maximum % change from baseline in LDL-C concentration ([1]; 25 mg once daily): −53.2% | Maximum % change from baseline in Total cholesterol ([1]; 25 mg once daily): 7.5% | Maximum % change from baseline in Triglycerides ([1]; 25 mg once daily): −31.4% | changes in LDL particle size ([1]; repeated doses 1 to 25 mg): no noteworthy changes | accumulation with once daily dosing ([2]; 1 mg): approximately 6 fold | accumulation with once daily dosing ([2]; 25 mg): 2 fold | residual effects on cessation of dosing ([2]; at the claimed dose (1 to 25 mg per day)): does not show prolonged residual effects | food effects ([2]; clinical studies): does not suffer from food effects | half-life ([2]; male, human, plasma, oral, following the last dose, independent of dose, read-out: mean terminal half-life): 121 to 151 h | Tmax ([2]; male, human, plasma, oral, post-dose, independent of dose, 1 to 25 mg, read-out: Tmax (median)): 4 to 6 h | CVs for Cmax, Cmin and AUC parameters ([2]; single and multiple dosing): ≤ 33% | increase of plasma concentrations with dose ([2]; single doses from 1 to 25 mg): approximately proportionally to dose | increase in AUC0-tau,ss [2, 4]: 9 fold | increase in Cmax,ss [2, 4]: 12 fold | increase in Cmin,ss [2, 4]: 7 fold | effect on serum electrolyte or aldosterone concentrations [3]: no effect | effects on blood pressure or heart rate, ECG variables, physical examination or laboratory safety tests [3]: no clinically significant effects | serious adverse events [3]: no serious adverse events | tolerability [3]: well tolerated
